Read-outs that look alike come from different tables or passages of the source.
Experiments:
[1] = Multiple dosing study in dogs: systemic exposure (plasma) to fexinidazole and its metabolites; type: in vivo, dog; details: dog, plasma, po; for AUC(0-t): read-out: AUC0-t (last)
Description: In an embodiment, the fexinidazole may be administered to the canine as an aqueous oral suspension, comprising 5% TWEEN 80 and 0.5% Methyl cellulose 400 cP (METHOCEL). Provided in this format, fexinidazole suspensions of 5, 20, and 80 mg fexinidazole/mL may be prepared such that 10 mL of each concentration contains 50, 200, and 800 mg fexinidazole, respectively.
Moreover, inventors expect that a wide variety of dosing regimens are now available to the skilled person to achieve the necessary and sufficient fexinidazole plasma levels. For example, and as further outlined in the Examples below, any dosing regimen that produces substantially similar fexinidazole plasma levels, as compared to those levels produced by giving the dogs about 60 mg/kg/day for about twenty-eight days, is expected to substantially or completely eliminate the Leishmania parasites. Table 1 presents the systemic fexinidazole exposure following dosing of dogs with 50, 200, and 800 mg/kg/day.

[2] = Toxicology summary: maximum dose after oral administration, mice; type: in vivo
Excerpt: Toxicology summary. In mice and rats, the maximum fexinidazole (FEX) dose after oral administration is 10 g/kg of body weight. […] Finally, as regards PK, labeled FEX and its metabolites were excreted within 3 days in the feces (52-58%) and urine (36-40%).

[3] = system: Leishmania donovani amastigotes grown in macrophages; details: Wyllie S et al., 2012; cited from earlier work
[4] = female, 50 mg/kg/day, Female Dog, 50 mg/kg/day oral, D28, mean ± SD, n = 3
[5] = female, 200 mg/kg/day, Female Dog, 200 mg/kg/day oral, D1, mean ± SD, n = 3
[6] = female, 200 mg/kg/day, Female Dog, 200 mg/kg/day oral, D14, mean ± SD, n = 3
[7] = female, 200 mg/kg/day, Female Dog, 200 mg/kg/day oral, D28, mean ± SD, n = 3
[8] = female, 800 mg/kg/day, Female Dog, 800 mg/kg/day oral, D1, mean ± SD, n = 5
[9] = female, 800 mg/kg/day, Female Dog, 800 mg/kg/day oral, D14, mean ± SD, n = 5
[10] = female, 800 mg/kg/day, Female Dog, 800 mg/kg/day oral, D28, mean ± SD, n = 5
[11] = male, 50 mg/kg/day, Male Dog, 50 mg/kg/day oral, D1, mean ± SD, n = 3
[12] = male, 50 mg/kg/day, Male Dog, 50 mg/kg/day oral, D14, mean ± SD, n = 3
[13] = male, 50 mg/kg/day, Male Dog, 50 mg/kg/day oral, D28, mean ± SD, n = 3
[14] = male, 200 mg/kg/day, Male Dog, 200 mg/kg/day oral, D1, mean ± SD, n = 3
[15] = male, 200 mg/kg/day, Male Dog, 200 mg/kg/day oral, D14, mean ± SD, n = 3
[16] = male, 200 mg/kg/day, Male Dog, 200 mg/kg/day oral, D28, mean ± SD, n = 3
[17] = male, 800 mg/kg/day, Male Dog, 800 mg/kg/day oral, D1, mean ± SD, n = 5
[18] = male, 800 mg/kg/day, Male Dog, 800 mg/kg/day oral, D14, mean ± SD, n = 5
[19] = male, 800 mg/kg/day, Male Dog, 800 mg/kg/day oral, D28, mean ± SD, n = 5

## CSc1ccc(OCc2ncc([N+](=O)[O-])n2C)cc1 [Fexinidazole, fexinidazole]
[1]; [4]
  Cmax: 36.3 ± 15.1 ng/mL
  Tmax: 1 h
  AUC(0-t): 87.1 ± 38.1 ng·h/mL
[1]; [5]
  Cmax: 84.1 ± 36.7 ng/mL
  Tmax: 1 h
  AUC(0-t): 454 ± 119 ng·h/mL
[1]; [6]
  Cmax: 77.7 ± 50.8 ng/mL
  Tmax: 2 h
  AUC(0-t): 443 ± 217 ng·h/mL
[1]; [7]
  Cmax: 73 ± 12 ng/mL
  Tmax: 1 h
  AUC(0-t): 377 ± 83.5 ng·h/mL
[1]; [8]
  Cmax: 184 ± 75.6 ng/mL
  Tmax: 1.2 ± 0.45 h
  AUC(0-t): 895 ± 437 ng·h/mL
[1]; [9]
  Cmax: 152 ± 44 ng/mL
  Tmax: 1.4 ± 0.55 h
  AUC(0-t): 1170 ± 309 ng·h/mL
[1]; [10]
  Cmax: 101 ± 47.1 ng/mL
  Tmax: 1 h
  AUC(0-t): 956 ± 378 ng·h/mL
[1]; [11]
  Cmax: 31.2 ± 12.4 ng/mL
  Tmax: 0.5 h
  AUC(0-t): 140 ± 147 ng·h/mL
[1]; [12]
  Cmax: 26.5 ± 13 ng/mL
  Tmax: 0.5 h
  AUC(0-t): 52.1 ± 29.4 ng·h/mL
[1]; [13]
  Cmax: 20.3 ± 7.89 ng/mL
  Tmax: 1 h
  AUC(0-t): 124 ± 67 ng·h/mL
[1]; [14]
  Cmax: 54.9 ± 10.8 ng/mL
  Tmax: 1 ± 0.87 h
  AUC(0-t): 419 ± 61.4 ng·h/mL
[1]; [15]
  Cmax: 78.1 ± 23.5 ng/mL
  Tmax: 1 ± 0.87 h
  AUC(0-t): 452 ± 41.1 ng·h/mL
[1]; [16]
  Cmax: 57.9 ± 12.5 ng/mL
  Tmax: 1 h
  AUC(0-t): 395 ± 15.8 ng·h/mL
[1]; [17]
  Cmax: 100 ± 21.2 ng/mL
  Tmax: 1.1 ± 0.55 h
  AUC(0-t): 776 ± 182 ng·h/mL
[1]; [18]
  Cmax: 128 ± 56.9 ng/mL
  Tmax: 1 h
  AUC(0-t): 929 ± 268 ng·h/mL
[1]; [19]
  Cmax: 86.2 ± 38.5 ng/mL
  Tmax: 1.2 ± 0.4 h
  AUC(0-t): 736 ± 141 ng·h/mL
[2]
  maximum dose after oral administration: 10 g/kg of body weight
[3]
  activity against Leishmania donovani amastigotes grown in macrophages: inactive

Source: patent US9585871B2, “Method for treating and curing leishmaniosis using fexinidazole” (Merial Limited, priority 2013, dated 2017)
